According to ChEMBL document CHEMBL1201862, “PubChem BioAssay data set” (2004):
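Method: 48-hour compound exposure of cells in 96-well plates, five concentrations, linear interpolation of endpoints. GI50 marks 50% less growth.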 Calls of active or inactive are those of the source. No stated cut-off is given here; in the data, active = GI50 up to about 1.1 µM and inactive = higher.

Key:
Assay in all cases: NCI-60 cell line screen, 48 h
[1] = system: HOP-92
[2] = system: EKVX
[3] = system: MDA-N
[4] = system: HCT-116
[5] = system: OVCAR-5
[6] = system: UO-31
[7] = system: SK-MEL-5
[8] = system: SW-620
[9] = system: MOLT-4
[10] = system: SN12C
[11] = system: NCI-H226
[12] = system: DU-145
[13] = system: ACHN
[14] = system: SF-295
[15] = system: RXF 393
[16] = system: Hs-578T
[17] = system: MCF7
[18] = system: T47D
[19] = system: HT-29
[20] = system: A498

| Structure (SMILES) | GI50 [1] | GI50 [2] | GI50 [3] | GI50 [4] | GI50 [5] | GI50 [6] | GI50 [7] | GI50 [8] | GI50 [9] | GI50 [10] | GI50 [11] | GI50 [12] | GI50 [13] | GI50 [14] | GI50 [15] | GI50 [16] | GI50 [17] | GI50 [18] | GI50 [19] | GI50 [20] |
| --- | --- | --- | --- | --- | --- | --- | --- | --- | --- | --- | --- | --- | --- | --- | --- | --- | --- | --- | --- | --- |
| CC(C)(C)c1ccc(OCC(=O)O)c(Cl)c1 | > 100 µM (inactive) | > 100 µM (inactive) | > 100 µM (inactive) | > 100 µM (inactive) | > 100 µM (inactive) | > 100 µM (inactive) | > 100 µM (inactive) | > 100 µM (inactive) | > 100 µM (inactive) | > 100 µM (inactive) | > 100 µM (inactive) | > 100 µM (inactive) | > 100 µM (inactive) | > 100 µM (inactive) | > 100 µM (inactive) | > 100 µM (inactive) | > 100 µM (inactive) | > 100 µM (inactive) | > 100 µM (inactive) | > 100 µM (inactive) |
| N=C(CC(=O)NOC(=O)c1ccccc1)NOC(=O)c1ccccc1 | 39.4 µM (inactive) | 30.9 µM (inactive) | 33.6 µM (inactive) | 38.6 µM (inactive) | 59.6 µM (inactive) | 19.1 µM (inactive) | 36.2 µM (inactive) | 50.8 µM (inactive) | 28.5 µM (inactive) | 29.4 µM (inactive) | 12.8 µM (inactive) | > 100 µM (inactive) | 29.6 µM (inactive) | 18.4 µM (inactive) | 10.8 µM (inactive) | 36.2 µM (inactive) | 25.8 µM (inactive) | > 100 µM (inactive) | > 100 µM (inactive) | 31.4 µM (inactive) |
| CCOP(=O)(OCC)/C(C#N)=C\c1cccc2ccccc12 | 23 µM (inactive) | 31.9 µM (inactive) | 40.6 µM (inactive) | 46 µM (inactive) | > 100 µM (inactive) | 56.9 µM (inactive) | 39.5 µM (inactive) | 68.5 µM (inactive) | 35.4 µM (inactive) | 82.4 µM (inactive) | 32.4 µM (inactive) | 57.9 µM (inactive) | > 75.9 µM (inactive) | 60.1 µM (inactive) | 31.6 µM (inactive) | 20.2 µM (inactive) | 39.9 µM (inactive) | 26.8 µM (inactive) | > 66.1 µM (inactive) | 44.5 µM (inactive) |
| CC(=O)c1[nH]c(Nc2ccc(C)cc2)c(C(=S)Nc2ccccc2)c1N | 13 µM (inactive) | 24.3 µM (inactive) | 16 µM (inactive) | 16.7 µM (inactive) | 32.9 µM (inactive) | 13.2 µM (inactive) | 15.6 µM (inactive) | 28.4 µM (inactive) | 30.1 µM (inactive) | 18.8 µM (inactive) | 14.4 µM (inactive) | 16.3 µM (inactive) | 18.8 µM (inactive) | 17.8 µM (inactive) | 13.3 µM (inactive) | 20 µM (inactive) | 15.7 µM (inactive) | 12.8 µM (inactive) | 25.8 µM (inactive) | 13.8 µM (inactive) |
| COc1cc(S(=O)(=O)Nc2ccc(-c3csc(N4C(=O)C(Cl)C4c4ccccc4O)n3)cc2)ccc1Cl (stereo not given) | 28 µM (inactive) | 15.4 µM (inactive) | 27.5 µM (inactive) | 30.3 µM (inactive) | 47.8 µM (inactive) | 31.9 µM (inactive) | 37.1 µM (inactive) | 32.3 µM (inactive) | 9.59 µM (inactive) | 33.1 µM (inactive) | 37.8 µM (inactive) | 14.3 µM (inactive) | 76.7 µM (inactive) | > 100 µM (inactive) | 19.9 µM (inactive) | 0.748 µM (active) | 21 µM (inactive) | 13.1 µM (inactive) | 36.8 µM (inactive) | 0.454 µM (active) |
| O=C1C(Br)=C(Br)C(=O)c2ccc(=O)ccc21 | 18.5 µM (inactive) | 36.6 µM (inactive) | 22.6 µM (inactive) | 20 µM (inactive) | 50.5 µM (inactive) | 17.6 µM (inactive) | 21 µM (inactive) | 20.8 µM (inactive) | 3.36 µM (inactive) | 19.1 µM (inactive) | > 53 µM (inactive) | > 100 µM (inactive) | 17.6 µM (inactive) | 33.2 µM (inactive) | 19.2 µM (inactive) | 26.4 µM (inactive) | 18.6 µM (inactive) | 24.4 µM (inactive) | 30.8 µM (inactive) | > 100 µM (inactive) |
| O=C(/C=C/c1ccc(OCCSCCCCCCCCCCSCCOc2ccc(/C=C/C(=O)c3ccc(Cl)cc3)cc2)cc1)c1ccc(Cl)cc1 | 47.4 µM (inactive) | > 100 µM (inactive) | > 100 µM (inactive) | > 100 µM (inactive) | > 100 µM (inactive) | > 100 µM (inactive) | > 100 µM (inactive) | > 100 µM (inactive) | > 100 µM (inactive) | > 100 µM (inactive) | > 76.2 µM (inactive) | > 100 µM (inactive) | > 88.1 µM (inactive) | 65.8 µM (inactive) | 43.6 µM (inactive) | > 78.5 µM (inactive) | > 100 µM (inactive) | > 100 µM (inactive) | > 100 µM (inactive) | > 100 µM (inactive) |
| CCOC(=O)CC[C@H](NC(=O)[C@H](N)Cc1ccc(N(CCCl)CCCl)cc1)C(=O)OCC | 3.64 µM (inactive) | > 42.6 µM (inactive) | 23.2 µM (inactive) | 22.2 µM (inactive) | 26.4 µM (inactive) | 14.1 µM (inactive) | 10.4 µM (inactive) | 18 µM (inactive) | 0.386 µM (active) | 14.2 µM (inactive) | > 34.7 µM (inactive) | 13.2 µM (inactive) | 4.76 µM (inactive) | 29.2 µM (inactive) | 14.2 µM (inactive) | 22.3 µM (inactive) | 20.6 µM (inactive) | 8.07 µM (inactive) | 36.1 µM (inactive) | > 100 µM (inactive) |
| O=C(O)c1nc2cc(Cl)ccc2[nH]c1=O | > 100 µM (inactive) | > 100 µM (inactive) | > 100 µM (inactive) | > 100 µM (inactive) | > 100 µM (inactive) | > 100 µM (inactive) | > 100 µM (inactive) | > 100 µM (inactive) | > 100 µM (inactive) | > 100 µM (inactive) | > 100 µM (inactive) | > 100 µM (inactive) | > 100 µM (inactive) | > 100 µM (inactive) | > 100 µM (inactive) | > 100 µM (inactive) | > 100 µM (inactive) | > 100 µM (inactive) | > 100 µM (inactive) | > 100 µM (inactive) |
| COc1ccc(/N=N/C(=O)NC(CC(C)C)C(N)=O)cc1 (stereo not given) | > 31.6 µM (inactive) | > 100 µM (inactive) | 30.2 µM (inactive) | > 31.6 µM (inactive) | > 100 µM (inactive) | 5.41 µM (inactive) | > 62.4 µM (inactive) | > 29.2 µM (inactive) | 7.74 µM (inactive) | > 31.6 µM (inactive) | > 94.4 µM (inactive) | 49.1 µM (inactive) | > 31.1 µM (inactive) | 5.58 µM (inactive) | > 31.6 µM (inactive) | > 100 µM (inactive) | 24.3 µM (inactive) | 12.2 µM (inactive) | > 100 µM (inactive) | > 31.6 µM (inactive) |
| COC(=O)C1=CO[C@@H](OC2OC(CO)C(O)C(O)C2O)[C@@H]2[C@H](C)[C@@H](O)[C@@H](O)[C@]12O (stereo not given in full) | > 100 µM (inactive) | > 100 µM (inactive) | > 100 µM (inactive) | > 100 µM (inactive) | > 100 µM (inactive) | > 100 µM (inactive) | > 100 µM (inactive) | > 100 µM (inactive) | > 100 µM (inactive) | > 100 µM (inactive) | > 100 µM (inactive) | > 100 µM (inactive) | > 100 µM (inactive) | > 100 µM (inactive) | > 100 µM (inactive) | > 100 µM (inactive) | > 100 µM (inactive) | > 100 µM (inactive) | > 100 µM (inactive) | > 100 µM (inactive) |
| Cc1ccc2ccc(=O)oc2c1 | > 100 µM (inactive) | > 100 µM (inactive) | > 100 µM (inactive) | > 100 µM (inactive) | > 100 µM (inactive) | > 100 µM (inactive) | > 100 µM (inactive) | > 100 µM (inactive) | > 100 µM (inactive) | > 100 µM (inactive) | > 100 µM (inactive) | > 100 µM (inactive) | > 100 µM (inactive) | > 100 µM (inactive) | > 100 µM (inactive) | > 100 µM (inactive) | > 100 µM (inactive) | 94.6 µM (inactive) | > 100 µM (inactive) | > 100 µM (inactive) |
| CN(C)/C=C/c1ccnc2c1C(=O)c1ccccc1C2=O | 31.8 µM (inactive) | 18.3 µM (inactive) | 1.32 µM (inactive) | 3.22 µM (inactive) | 17.3 µM (inactive) | 7.48 µM (inactive) | 1.28 µM (inactive) | 3.21 µM (inactive) | 22.5 µM (inactive) | 5.2 µM (inactive) | 10.5 µM (inactive) | 1.73 µM (inactive) | 6.73 µM (inactive) | 4.56 µM (inactive) | > 59.3 µM (inactive) | 2.78 µM (inactive) | 4.46 µM (inactive) | > 48.4 µM (inactive) | 14.8 µM (inactive) | 31.9 µM (inactive) |
| Nc1nc(SCc2ccccc2[N+](=O)[O-])c2[nH]cnc2n1 | 2.23 µM (inactive) | > 53.5 µM (inactive) | 27.9 µM (inactive) | > 60.1 µM (inactive) | 42.3 µM (inactive) | > 66.5 µM (inactive) | 18.9 µM (inactive) | > 73.6 µM (inactive) | > 100 µM (inactive) | > 57.1 µM (inactive) | > 50.9 µM (inactive) | 44.7 µM (inactive) | > 57.8 µM (inactive) | > 67.6 µM (inactive) | > 62.8 µM (inactive) | 1.93 µM (inactive) | 51.5 µM (inactive) | 23.3 µM (inactive) | 32.8 µM (inactive) | 18.6 µM (inactive) |
